A word on the IC50: it is the point on the concentration scale where inhibition reaches its midpoint.

Counter-ions that a name gives are not always drawn.

The target of this test is T1, human SSAO (Homo sapiens, UniProt Q16853).
T1 construct: made in house
T1 sequence (Q16853 29-763 limits assumed): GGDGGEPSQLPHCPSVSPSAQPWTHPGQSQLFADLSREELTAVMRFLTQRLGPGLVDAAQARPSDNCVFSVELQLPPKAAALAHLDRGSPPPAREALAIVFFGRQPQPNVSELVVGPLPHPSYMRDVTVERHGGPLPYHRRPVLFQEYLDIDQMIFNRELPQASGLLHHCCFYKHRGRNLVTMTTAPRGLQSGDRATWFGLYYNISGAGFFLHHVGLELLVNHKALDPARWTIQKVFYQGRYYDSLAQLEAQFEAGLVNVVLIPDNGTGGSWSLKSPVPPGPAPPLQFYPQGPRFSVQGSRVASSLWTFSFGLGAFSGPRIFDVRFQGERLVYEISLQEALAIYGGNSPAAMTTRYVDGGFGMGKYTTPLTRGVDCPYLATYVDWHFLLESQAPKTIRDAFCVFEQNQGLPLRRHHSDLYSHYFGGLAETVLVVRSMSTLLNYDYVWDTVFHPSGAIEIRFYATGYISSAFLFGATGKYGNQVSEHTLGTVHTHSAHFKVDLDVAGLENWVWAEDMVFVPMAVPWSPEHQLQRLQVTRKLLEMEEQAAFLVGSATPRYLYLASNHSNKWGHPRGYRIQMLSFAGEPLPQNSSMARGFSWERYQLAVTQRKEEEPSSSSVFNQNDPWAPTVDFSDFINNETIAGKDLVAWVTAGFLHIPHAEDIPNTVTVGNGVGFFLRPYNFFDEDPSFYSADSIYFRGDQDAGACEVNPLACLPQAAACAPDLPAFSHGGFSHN
As to the kind of experiment: SSAO enzyme inhibition assay (benzylamine substrate; HRP-coupled hydrogen peroxide detection or 14C-benzaldehyde detection). Format: biochemical. The settings on record: purified recombinantly expressed human SSAO, benzylamine as substrate, r.t.; read-out: SSAO inhibitory activity IC50. How it is done: All primary assays were performed at r.t. with purified recombinantly expressed human SSAO. Enzyme was prepared essentially as described in Öhman et al. (Protein Expression and Purification 46 (2006) 321-331). In addition, secondary- and selectivity assays were performed using SSAO prepared from various tissues or purified rat recombinant SSAO. The enzyme activity was assayed with benzylamine as substrate by measuring either benzaldehyde production, using ^14C-labeled substrate, or by utilizing the production of hydrogen peroxide in a horseradish peroxidise (HRP) coupled reaction. Briefly, test compounds were dissolved in dimethyl sulfoxide (DMSO) to a concentration of 10 mM. Dose-response measurements were assayed by either creating 1:10 serial dilutions in DMSO to produce a 7 point curve or by making 1:3 serial dilutions in DMSO to produce 11 point curves. The top concentrations were adjusted depending on the potency of the compounds and subsequent dilution in reaction buffer yielded a final DMSO concentration ≦2%.
In a horseradish peroxidise (HRP) coupled reaction, hydrogen peroxide oxidation of 10-acetyl-3,7-dihydroxyphenoxazine produced resorufin, which is a highly fluorescent compound (Zhout and Panchuk-Voloshina. Analytical Biochemistry 253 (1997) 169-174; Amplex® Red Hydrogen Peroxide/peroxidise Assay kit, Invitrogen A22188). Enzyme and compounds in 50 mM sodium phosphate, pH 7.4 were set to pre-incubate in flat-bottomed microtiter plates for approximately 15 minutes before initiating the reaction by addition of a mixture of HRP, benzylamine and Amplex reagent. Benzylamine concentration was fixed at a concentration corresponding to the Michaelis constant, determined using standard procedures. Fluorescence intensity was then measured at several time points during 1-2 hours, exciting at 544 nm n and reading the emission at 590 nm. For the human SSAO assay final concentrations of the reagents in the assay wells were: SSAO enzyme 1 μg/ml, benzylamine 100 μM, Amplex reagent 20 μM, HRP 0.1 U/mL and varying concentrations of test compound. The inhibition was measured as % decrease of the signal compared to a control without inhibitor (only diluted DMSO). The background signal from a sample containing no SSAO enzyme was subtracted from all data points. Data was fitted to a four parameter logistic model and IC50 values were calculated using the GraphPad Prism 4 or XLfit 4 programs.
SSAO activity was assayed using 14C-labeled benzylamine and analysed by measuring radioactive benzaldehyde. In a white 96-well optiplate (Packard), 20 μL of diluted test compound was pre-incubated at r.t. with 20 μL SSAO enzyme for approximately 15 minutes with continuous agitation. All dilutions were made with PBS. The reaction was initiated by adding 20 μL of the benzylamine substrate solution containing [7-14C] Benzylamine hydrochloride (CFA589, GE Healthcare). The plate was incubated for 1 hour as above after which the reaction was stopped by acidification (10 μL 1 M HCl). Then 90 μL Micro Scint-E solution (Perkin-Elmer) was added to each well and the plate was continuously mixed for 15 minutes. Phase separation occurred instantly and activity was read in a Topcount scintillation counter (Perkin-Elmer). In the final reaction well, human recombinant SSAO concentration was 10 μg/ml. In order to optimize sensitivity, the substrate concentration was decreased as compared to the HRP coupled assay in order to get a higher fraction of radioactive product. In the human SSAO assay, benzylamine concentration was 40 μM (0.2 μCi/mL). Data was analysed as above.
Turning to `Cc1ccc(-n2nc(N3CCOC(CC(C)C)C3)c3ccncc32)cc1` (centres unmarked) [Compound 61, 4-[1-(4-Methylphenyl)-1H-pyrazolo[3,4-c]pyridin-3-yl]-2-(2-methylpropyl)morpholine], the IC50 was in the range of 100 to 500 nM.
The figure for `FC1(F)CCN(c2nn(-c3ccc(Cl)cc3)c3cnccc23)CC1` [Compound 52, 1-[1-(4-Chlorophenyl)-1H-pyrazolo[3,4-c]pyridin-3-yl]-4,4-difluoropiperidine] is 100 to 500 nM; for `Cc1ccc(-n2nc(N3CCC(O)CC3)c3ccncc32)cc1` [Compound 74, 1-[1-(4-Methylphenyl)-1H-pyrazolo[3,4-c]pyridin-3-yl]piperidin-4-ol] it is less than 100 nM.
The same measure for `NCCCC(=O)N1CCC(c2cn(-c3ccc(Cl)cc3)c3cnccc23)CC1` [Compound 105, 2,2,2-Trifluoroacetic acid; 4-amino-1-{4-[1-(4-chlorophenyl)-1H-pyrrolo[2,3-c]pyridin-3-yl]piperidin-1-yl}butan-1-one]: less than 100 nM; for `NCC(=O)N1CCC(c2cn(-c3ccc(Cl)cc3)c3cnccc23)CC1` [Compound 16, 2-Amino-{4-[1-(4-chlorophenyl)-1H-pyrrolo[2,3-c]pyridin-3-yl]piperidin-1-yl}-ethan-1-one hydrochloride]: less than 100 nM; for `Clc1ccc(-n2cc(C3CCN(Cc4cc[nH]n4)CC3)c3ccncc32)cc1` [Compound 19, 4-[1-(4-Chlorophenyl)-1H-pyrrolo[2,3-c]pyridin-3-yl]-1-(1H-pyrazol-3-ylmethyl)-piperidine]: 100 to 500 nM.
Turning to `Cc1cc(Cl)ccc1-n1cc(C2CCC(N)CC2)c2ccncc21` (mixture of isomers) [Compound 13, 4-[1-(4-Chloro-2-methylphenyl)-1H-pyrrolo[2,3-c]pyridin-3-yl]cyclohexan-1-amine hydrochloride], the IC50 lay within 100 to 500 nM.
For `Cc1ccc(-n2nc(C3CCC(=O)NC3)c3ccncc32)cc1` (centres unmarked) [Compound 87, 5-[1-(4-Methylphenyl)-1H-pyrazolo[3,4-c]pyridin-3-yl]piperidin-2-one], the IC50 was in the range of 100 to 500 nM.
Take `Fc1cc(Cl)ccc1-n1nc(C2CCOCC2)c2ccncc21` [Compound 44, 1-(4-Chloro-2-fluorophenyl)-3-(oxan-4-yl)-1H-pyrazolo[3,4-c]pyridine]: the half-inhibitory concentration (IC50) is less than 100 nM.
Regarding `COC(=O)C1COCCN1c1nn(-c2ccc(C)cc2)c2cnccc12` (centres unmarked) [Compound 66, Methyl 4-[1-(4-methylphenyl)-1H-pyrazolo[3,4-c]pyridin-3-yl]morpholine-3-carboxylate], the IC50 was less than 100 nM.
On to `OC1CCN(Cc2cn(-c3ccc(Cl)cc3)c3cnccc23)CC1` [Compound 30, 1-{[1-(4-Chlorophenyl)-1H-pyrrolo[2,3-c]pyridin-3-yl]methyl}piperidin-4-ol], for which the IC50 is 100 to 500 nM.
The same measure for `Cc1ccc(-n2nc(N3CCOC(C)(C)C3)c3ccncc32)cc1` [Compound 64, 2,2-Dimethyl-4-[1-(4-methylphenyl)-1H-pyrazolo[3,4-c]pyridin-3-yl]morpholine]: less than 100 nM; for `Clc1ccc(-n2cc(N3CCOCC3)c3ccncc32)cc1` [Compound 104, 4-[1-(4-Chlorophenyl)-1H-pyrrolo[2,3-c]pyridin-3-yl]morpholine 2,2,2-trifluoroacetic acid]: less than 100 nM.
`CN1CCN(Cc2cn(-c3ccc(Cl)cc3)c3cnccc23)CC1` [Compound 24, 1-{[1-(4-Chlorophenyl)-1H-pyrrolo[2,3-c]pyridin-3-yl]methyl}-4-methylpiperazine]: the IC50 lay within 500 to 2500 nM.
On to `Fc1ccc(-n2nc(C3CCOCC3)c3ccncc32)cc1` [Compound 83, 1-(4-Fluorophenyl)-3-(oxan-4-yl)-1H-pyrazolo[3,4-c]pyridine], for which the IC50 lay in the range of 100 to 500 nM.
As to `Cc1ccc(-n2nc(N3CCNC(=O)C3)c3ccncc32)cc1` [Compound 68, 4-[1-(4-Methylphenyl)-1H-pyrazolo[3,4-c]pyridin-3-yl]piperazin-2-one], the IC50 was less than 100 nM.
On to `Clc1ccc(-n2nc(N3CCNCC3)c3ccncc32)cc1` [Compound 70, 1-[1-(4-Chlorophenyl)-1H-pyrazolo[3,4-c]pyridin-3-yl]piperazine], for which the concentration for half-maximal inhibition (IC50) lay in the range of 500 to 2500 nM.
Take `Cc1ccc(-n2nc(N3CCOCC3C(=O)N3CCOCC3)c3ccncc32)cc1` (centres unmarked) [Compound 78, 4-[1-(4-Methylphenyl)-1H-pyrazolo[3,4-c]pyridin-3-yl]-3-[(morpholin-4-yl)carbonyl]morpholine]: the IC50 lay in the range of 500 to 2500 nM.
In the case of `Cc1ccc(-n2nc(C3COCCN3)c3ccncc32)cc1` (centres unmarked) [Compound 85, 3-[1-(4-Methylphenyl)-1H-pyrazolo[3,4-c]pyridin-3-yl]morpholine], the IC50 is 500 to 2500 nM.
The same measure for `CN(C)C(=O)N1CCC(c2nn(-c3ccc(Cl)cc3)c3cnccc23)CC1` [Compound 91, 4-[1-(4-Chlorophenyl)-1H-pyrazolo[3,4-c]pyridin-3-yl]-N,N-dimethylpiperidine-1-carboxamide]: 100 to 500 nM.
Take `Clc1ccc(-n2cc(C3=CCNCC3)c3ccncc32)cc1` [Compound 8, 4-[1-(4-Chlorophenyl)-1H-pyrrolo[2,3-c]pyridin-3-yl]-hydrochloride]: the IC50 is 100 to 500 nM.
The same measure for `Cc1ccc(-n2nc(N3CCOCC3(C)C)c3ccncc32)cc1` [Compound 65]: 100 to 500 nM; for `Clc1ccc(-n2nc(N3CCOCC3)c3ccncc32)cc1` [Compound 56, 4-[1-(4-Chlorophenyl)-1H-pyrazolo[3,4-c]pyridin-3-yl]morpholine]: less than 100 nM; for `OC1CCN(c2nn(-c3ccc(Cl)cc3)c3cnccc23)C1` (centres unmarked) [Compound 49, 1-[1-(4-Chlorophenyl)-1H-pyrazolo[3,4-c]pyridin-3-yl]pyrrolidin-3-ol]: less than 100 nM.
`FC(F)c1ccc(-n2nc(C3CCOCC3)c3ccncc32)cc1` [Compound 42, 1-[4-(Difluoromethyl)phenyl]-3-(oxan-4-yl)-1H-pyrazolo[3,4-c]pyridine]: the IC50 was 100 to 500 nM.
For `COc1cncc2c1c(C1CCOCC1)nn2-c1ccc(Cl)cc1` [Compound 94, 1-(4-Chlorophenyl)-4-methoxy-3-(oxan-4-yl)-1H-pyrazolo[3,4-c]pyridine], the IC50 is 500 to 2500 nM.
The same measure for `Cc1ccc(-n2c(C)c(C3=CCOCC3)c3ccncc32)cc1` [Compound 107, 3-(3,6-Dihydro-2H-pyran-4-yl)-2-methyl-1-(4-methylphenyl)-1H-pyrrolo[2,3-c]pyridine]: less than 100 nM; for `Clc1ccc(-c2cn(C3CCNCC3)c3ccncc23)cc1Cl` [Compound 6, 4-[3-(3,4-Dichlorophenyl)-1H-pyrrolo[3,2-c]pyridin-1-yl]piperidine hydrochloride]: 500 to 2500 nM; for `Clc1ccc(-n2nc(C3CCN(Cc4cc[nH]n4)CC3)c3ccncc32)cc1` [Compound 89, 4-[1-(4-Chlorophenyl)-1H-pyrazolo[3,4-c]pyridin-3-yl]-1-(1H-pyrazol-3-ylmethyl)piperidine]: 100 to 500 nM.

The values above are taken from patent US9227967B2, “Inhibitor compounds of semicarbazide-sensitive amine oxidases” (Proximagen Limited, priority 2010, dated 2016).
